In PubChem BioAssay AID328 (DTP/NCI, 2004):
Where “and” joins values, the source holds several entries; their conditions need not be identical. Equal entries are not always repeated. Inconclusive results and toxic doses are left out.

Tested on: BDF1 mice, P388 leukemia ip, median survival T/C
Test: NCI In Vivo Anticancer Drug Screen. Data for tumor model P388 Leukemia (intraperitoneal) in B6D2F1 (BDF1) mice
Settings: endpoint: median survival time, higher = longer survival
Outline: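 Survival ratio, drug arm over vehicle arm, in mice with a transplanted tumour.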

[1] = dose: 25.0 mg/kg/injection, schedule: Q01DX009 (ip), vehicle: saline
[2] = dose: 25.0 mg/kg/injection, schedule: Q04DX003 (ip), vehicle: saline
[3] = dose: 50.0 mg/kg/injection, schedule: Q01DX009 (ip), vehicle: saline
[4] = dose: 50.0 mg/kg/injection, schedule: Q04DX003 (ip), vehicle: saline
[5] = dose: 100.0 mg/kg/injection, schedule: Q01DX009 (ip), vehicle: saline
[6] = dose: 100.0 mg/kg/injection, schedule: Q04DX003 (ip), vehicle: saline
[7] = dose: 200.0 mg/kg/injection, schedule: Q01DX009 (ip), vehicle: saline
[8] = dose: 200.0 mg/kg/injection, schedule: Q04DX003 (ip), vehicle: saline
[9] = dose: 400.0 mg/kg/injection, schedule: Q01DX009 (ip), vehicle: saline
[10] = dose: 400.0 mg/kg/injection, schedule: Q04DX003 (ip), vehicle: saline
[11] = dose: 25.0 mg/kg/injection, schedule: Q01DX001 (ip), vehicle: saline with Tween-80
[12] = dose: 50.0 mg/kg/injection, schedule: Q01DX001 (ip), vehicle: saline with Tween-80
[13] = dose: 100.0 mg/kg/injection, schedule: Q01DX001 (ip), vehicle: saline with Tween-80
[14] = dose: 50.0 mg/kg/injection, schedule: Q04DX003 (ip), vehicle: Klucel (hydroxypropylcellulose) (HPC)
[15] = dose: 100.0 mg/kg/injection, schedule: Q01DX009 (ip), vehicle: Klucel (hydroxypropylcellulose) (HPC)
[16] = dose: 200.0 mg/kg/injection, schedule: Q04DX003 (ip), vehicle: Klucel (hydroxypropylcellulose) (HPC)
[17] = dose: 100.0 mg/kg/injection, schedule: Q01DX001 (ip), vehicle: Klucel (hydroxypropylcellulose) (HPC)
[18] = dose: 200.0 mg/kg/injection, schedule: Q01DX001 (ip), vehicle: Klucel (hydroxypropylcellulose) (HPC)
[19] = dose: 400.0 mg/kg/injection, schedule: Q01DX001 (ip), vehicle: Klucel (hydroxypropylcellulose) (HPC)
[20] = dose: 400.0 mg/kg/injection, schedule: Q04DX003 (ip), vehicle: Klucel (hydroxypropylcellulose) (HPC)
[21] = dose: 100.0 mg/kg/injection, schedule: Q04DX003 (ip), vehicle: Klucel (hydroxypropylcellulose) (HPC)
[22] = dose: 100.0 mg/kg/injection, schedule: Q04DX003 (ip), vehicle: saline with Tween-80
[23] = dose: 400.0 mg/kg/injection, schedule: Q04DX003 (ip), vehicle: saline with Tween-80

CCN(CC)CCSC(=O)C(O)(c1ccccc1)C1CCCC1 (configuration not stated)
T/C [1]: 109 % of control | T/C [2]: 109 % of control | T/C [3]: 95 % of control | T/C [4]: 104 % of control | T/C [5]: 113 % of control | T/C [6]: 109 % of control

CNC(=O)NC1C(O)COC(OC)C1O (configuration not stated)
T/C (dose: 150.0 mg/kg/injection, schedule: Q01DX001 (ip), vehicle: saline): 104 % of control | T/C (dose: 300.0 mg/kg/injection, schedule: Q01DX001 (ip), vehicle: saline): 109 % of control

COc1ccc2[nH]c(C)c(SC)c2c1
T/C (dose: 50.0 mg/kg/injection, schedule: Q04DX002 (ip), vehicle: saline with Tween-80): 98 % of control | T/C (dose: 100.0 mg/kg/injection, schedule: Q04DX002 (ip), vehicle: saline with Tween-80): 100 % of control | T/C (dose: 200.0 mg/kg/injection, schedule: Q04DX002 (ip), vehicle: saline with Tween-80): 89 % of control

CCCCSCC(N)C(=O)OC (configuration not stated)
T/C [5]: 103 % of control | T/C [6]: 100 % of control | T/C [7]: 111 % of control | T/C [8]: 104 % of control | T/C [9]: 106 % of control | T/C [10]: 109 % of control

O=[N+]([O-])c1ccc2c(N=Nc3c(O)ccc4ccccc34)c(O)cc(S(=O)(=O)O)c2c1
T/C [11]: 104 % of control | T/C [12]: 100 % of control | T/C [13]: 100 % of control | T/C (dose: 100.0 mg/kg/injection, schedule: Q01DX009 (ip), vehicle: saline with Tween-80): 104 % of control | T/C (dose: 400.0 mg/kg/injection, schedule: Q01DX009 (ip), vehicle: saline with Tween-80): 100 % of control

CCCCCC[n+]1cccc(C(N)=O)c1
T/C [4]: 104 % of control | T/C [6]: 100 % of control | T/C [8]: 95 % of control

OCc1nccn1Cc1ccccc1
T/C (dose: 12.5 mg/kg/injection, schedule: Q01DX009 (ip), vehicle: water): 108 % of control | T/C (dose: 25.0 mg/kg/injection, schedule: Q01DX009 (ip), vehicle: water): 99 % of control | T/C (dose: 50.0 mg/kg/injection, schedule: Q01DX009 (ip), vehicle: water): 101 % of control | T/C (dose: 100.0 mg/kg/injection, schedule: Q01DX009 (ip), vehicle: water): 108 % of control | T/C (dose: 200.0 mg/kg/injection, schedule: Q01DX009 (ip), vehicle: water): 101 % of control | T/C (dose: 300.0 mg/kg/injection, schedule: Q01DX009 (ip), vehicle: water): 114 % of control

CCCOP(=S)(N1CC1)N1CC1
T/C (dose: 25.0 mg/kg/injection, schedule: Q01DX009 (ip), vehicle: other): 100 % of control | T/C [14]: 116 % of control | T/C [15]: 100 % of control | T/C (dose: 100.0 mg/kg/injection, schedule: Q01DX009 (ip), vehicle: other): 150 % of control | T/C [16]: 183 % of control

COc1cc([C@@H]2c3cc4c(cc3[C@H](O)[C@H]3COC(=O)[C@H]23)OCO4)cc(OC)c1OC
T/C (dose: 1.0 mg/kg/injection, schedule: Q01DX010 (ip), vehicle: steriod suspending solution): 118 % of control | T/C (dose: 2.0 mg/kg/injection, schedule: Q01DX010 (ip), vehicle: carboxymethylcellulose (CMC)): 171 % of control | T/C (dose: 2.25 mg/kg/injection, schedule: Q01DX001 (ip), vehicle: other): 115 % of control | T/C (dose: 2.25 mg/kg/injection, schedule: Q01DX010 (ip), vehicle: other): 150 % of control | T/C (dose: 4.0 mg/kg/injection, schedule: Q01DX010 (ip), vehicle: carboxymethylcellulose (CMC)): 95 % of control | T/C (dose: 4.5 mg/kg/injection, schedule: Q01DX010 (ip), vehicle: other): 154 % of control | T/C (dose: 9.0 mg/kg/injection, schedule: Q01DX001 (ip), vehicle: other): 115 % of control | T/C (dose: 9.0 mg/kg/injection, schedule: Q01DX010 (ip), vehicle: other): 95 % of control

COc1cc2ccc3ccncc3c2cc1OC
T/C (dose: 12.5 mg/kg/injection, schedule: Q01DX009 (ip), vehicle: saline): 95 % of control | T/C [1]: 100 % of control | T/C [2]: 95 % of control | T/C [3]: 90 % of control | T/C [4]: 113 % of control | T/C [6]: 86 % of control

C=CCc1cn(C2CC(O)C(CO)O2)c(=O)[nH]c1=O (configuration not stated)
T/C [5]: 116 % of control | T/C [7]: 108 % of control | T/C [9]: 116 % of control

O=c1[nH]c(=O)c2cccnc2[nH]1
T/C (dose: 25.0 mg/kg/injection, schedule: Q01DX009 (ip), vehicle: saline sonified): 100 % of control | T/C (dose: 50.0 mg/kg/injection, schedule: Q01DX009 (ip), vehicle: saline sonified): 100 % of control | T/C (dose: 100.0 mg/kg/injection, schedule: Q01DX009 (ip), vehicle: saline sonified): 94 % of control

Cn1c(=O)[nH]c2ccccc2c1=O
T/C [17]: 104 % of control | T/C [18]: 104 % of control | T/C [19]: 107 % of control

C1=NOC2c3ccc4ccccc4c3CCC12 (configuration not stated)
T/C [16]: 87 % of control | T/C [20]: 95 % of control

CC(=O)CC(=O)c1ccccc1
T/C [17]: 112 % of control | T/C [21]: 108 % of control | T/C [18]: 95 % of control | T/C [16]: 108 % of control | T/C [19]: 91 % of control | T/C [20]: 112 % of control

CCOC(=O)c1cnc(=S)[nH]c1N
T/C (dose: 50.0 mg/kg/injection, schedule: Q01DX009 (ip), vehicle: Klucel (hydroxypropylcellulose) (HPC)): 95 % of control | T/C [14]: 109 % of control | T/C [15]: 100 % of control | T/C [21]: 100 % of control | T/C (dose: 200.0 mg/kg/injection, schedule: Q01DX009 (ip), vehicle: Klucel (hydroxypropylcellulose) (HPC)): 95 % of control | T/C [16]: 109 % of control

Brc1ccc(Oc2ccccc2)cc1
T/C [22]: 122 % of control | T/C (dose: 266.0 mg/kg/injection, schedule: Q04DX003 (ip), vehicle: saline with Tween-80): 100 % of control | T/C [23]: 103 % of control | T/C (dose: 600.0 mg/kg/injection, schedule: Q04DX003 (ip), vehicle: saline with Tween-80): 96 % of control

CC(=O)NCCC(C)C
T/C [6]: 104 % of control | T/C [8]: 113 % of control | T/C [10]: 109 % of control

O=C(Cc1ccc(F)cc1)c1ccccc1
T/C [22]: 88 % of control | T/C (dose: 200.0 mg/kg/injection, schedule: Q04DX003 (ip), vehicle: saline with Tween-80): 111 % of control | T/C [23]: 105 % of control

O=[N+]([O-])C=C1CCCCC1
T/C [11]: 113 % of control | T/C [12]: 118 % of control | T/C [13]: 113 % of control

OCC1OC(n2cnc3cncnc32)C(O)C1O (configuration not stated)
T/C (dose: 0.78 mg/kg/injection, schedule: Q01DX009 (ip), vehicle: saline): 97 % of control | T/C (dose: 1.56 mg/kg/injection, schedule: Q01DX009 (ip), vehicle: saline): 113 % of control and 115 % of control | T/C (dose: 3.13 mg/kg/injection, schedule: Q04DX003 (ip), vehicle: saline): 100 % of control | T/C (dose: 6.25 mg/kg/injection, schedule: Q04DX003 (ip), vehicle: saline): 116 % of control | T/C [1]: 100 % of control

CCC[CH2][Sn]([CH2]CCC)([CH2]CCC)[S]C(=S)NCCNC(=S)[S][Sn]([CH2]CCC)([CH2]CCC)[CH2]CCC
T/C (dose: 0.78 mg/kg/injection, schedule: Q01DX010 (ip), vehicle: saline): 113 % of control | T/C (dose: 1.56 mg/kg/injection, schedule: Q01DX010 (ip), vehicle: saline): 109 % of control | T/C (dose: 3.13 mg/kg/injection, schedule: Q01DX010 (ip), vehicle: saline): 109 % of control

CCCCCn1c(Cl)c(/C=N\Nc2ccc([N+](=O)[O-])cc2[N+](=O)[O-])c2ccccc21
T/C (dose: 100.0 mg/kg/injection, schedule: Q04DX002 (ip), vehicle: Klucel (hydroxypropylcellulose) (HPC)): 88 % of control | T/C (dose: 200.0 mg/kg/injection, schedule: Q04DX002 (ip), vehicle: Klucel (hydroxypropylcellulose) (HPC)): 89 % of control | T/C (dose: 400.0 mg/kg/injection, schedule: Q04DX002 (ip), vehicle: Klucel (hydroxypropylcellulose) (HPC)): 90 % of control
